The text below walks through data of patent US12534444B2, “Treatment of cancer/inhibition of metastasis” (Celex Oncology Innovations Limited, priority 2010, dated 2026).

Each structure is given as a SMILES string.

The test system of the assay is MDA-MB-231 cells. The assay can be described thus: Single-cell adhesion assay (SCAMA, detachment negative pressure). It is filed as cell-based, human. Conditions: 24 hours. The method, then:
FIG. 4 is a schematic illustration of the single-cell adhesion measurement apparatus (SCAMA) first described in the paper by Palmer et al. (2008). Human breast cancer cells from the MDA-MB-231 cell line were plated at a density of 2.5×10^4 cells/ml and left to settle in a cell culture dish 401 for 48 hours prior to measurements. Medium was removed and 2 ml of the drug under study was applied for 10 minutes. Adhesion was measured using a glass micropipette 402 connected to a vacuum pump 403 via plastic tubing 404. The tip of the micropipette was drawn to about 20 μm (range, 17-24 μm) tip diameter. The vacuum pump was used to create negative pressure inside a reservoir 405 so that the negative pressure could be applied to the tip of the micropipette by pressing the thumb to the open end of a sealable T-piece 406. […] The pressure was measured using a digital manometer 409 connected to a computer 410 via a RS232 cable 411. Using a micromanipulator 412, the micropipette 402 was positioned on the periphery of a single cell. […] The negative pressure required to detach the cell was recorded on the computer as a pressure spike. The peak of the spike (“detachment negative pressure” (DNP)) was used as a measure of the cell's adhesiveness. Using this technique, several recordings could be made from a single dish within minutes. […] In order to test for the reversibility of a given effect, the pharmacological agent was washed off, fresh medium was added and the plate was incubated for a further 10 minutes prior to re-measurement. Each treatment was carried out on at least two dishes of cells, at least 100 cells per dish were measured, and the experiment was repeated three times (with corresponding controls). In the single cell adhesion experiments, hypoxia was induced chemically by application of hydrogen peroxide (1-500 μM) for 24 hours.

On to `OO` [hydrogen peroxide], for which the “mean detachment negative pressure (ΔDNP versus untreated control)” value is “approximately −9%” (hydrogen peroxide 1 μM), “approximately −14%” (hydrogen peroxide 10 μM) and “approximately −20%” (hydrogen peroxide 100 μM).
